Key:
A. fumigatus UGM [1] = target: T1, A. fumigatus UGM (Aspergillus fumigatus, UniProt Q4W1X2); assay: biochemical; assay type: binding; details: 20 µM compound, 2% DMSO, 30 nM ADP-TAMRA, normalized to negative control; read-out: Normalized anisotropy (%)
T1 construct: 8x His-tag (TEV-cleavable) (cleaved yes); made in house; host or cells: E. coli BL21 Turbo (DE3)
Experimental: High-throughput screening of the Spectrum Collection library using the FP assay with the ADP-TAMRA[22] probe was performed at the Virginia Tech Center for Drug Discovery Screening Laboratory. 384 well plates (Greiner 784900) were used and the reaction volume was 15 µL using 25 mM HEPES buffer (pH 7.0). For the screening, 30 nM of ADP-TAMRA with 6.7 µM UGM (based on the Bradford assay) and 20 µM of library compound were used, with a final DMSO concentration of 2%. Fluorescence polarization measurements were performed with excitation at 544 nm and emission at 584 nm, using a wavelength cutoff of 570 nm. Anisotropy measurements were performed after 30 and 120 minutes of incubation at 25 °C. Anisotropy values were normalized to the values obtained in the negative control sample: UGM, ADP-TAMRA, and DMSO (high anisotropy values). The positive control consisted of ADP-TAMRA and DMSO (low anisotropy values). The Z prime (Z′) value was determined using equation (1) where, σN,P and μN,P represent the standard deviation and the mean value the of the negative and positive controls respectively.1 Z′=1−3(σN+σP)/|μN−μP|

A. fumigatus UGM [2] = target: T1, A. fumigatus UGM; assay: biochemical; assay type: biochemical
Experimental: (§1) The reaction was quenched with the addition of 70 µL acetonitrile. […] Samples were run at a flow rate of 0.5 mL/min for 5 min. IC50 was also determined by following NADPH oxidation at 340 nm. […] Data was analyzed using KaleidaGraph software. […] Global fitting was performed with Graphpad Prims 6 software (La Jolla, CA).

A. fumigatus UGM [3] = target: T1, A. fumigatus UGM; assay: biochemical; assay type: biochemical; details: for Type of Inhibition: NADPH oxidation at different concentrations of inhibitor and NADPH
Experimental: as §1

A. fumigatus UGM [4] = target: T1, A. fumigatus UGM; assay: biochemical; assay type: binding
Experimental: Binding of inhibitors to UGM was measured with an Auto-ITC 200 ITC instrument. UGM was dialyzed in 50 mM potassium phosphate buffer, pH 7.0, for 2 h at 4 °C. In all cases, ligands were dissolved in dialysis buffer and protein and ligand were filtered with a […] membrane prior to loading. […] Inhibitor concentration in the syringe was 2 mM (2% DMSO), except for chrysin where the concentration was 600 µM (4% DMSO). […] Thermodynamic parameters were determined from ITC results using Microcal Origin version 7.0 (OriginLab) with the “ITC custom” add-on installed.

UGM = target: T2, UGM (Aspergillus fumigatus, UniProt Q4W1X2); assay: ThermoFAD melting temperature assay; assay type: binding; details: 20, 100 and 1000 µM compound, 2% DMSO, 1 mg/mL UGM
T2 construct: 8x His-tag (TEV-cleavable) (cleaved yes); made in house; host or cells: E. coli BL21 Turbo (DE3)
T2 sequence (Q4W1X2 whole entry): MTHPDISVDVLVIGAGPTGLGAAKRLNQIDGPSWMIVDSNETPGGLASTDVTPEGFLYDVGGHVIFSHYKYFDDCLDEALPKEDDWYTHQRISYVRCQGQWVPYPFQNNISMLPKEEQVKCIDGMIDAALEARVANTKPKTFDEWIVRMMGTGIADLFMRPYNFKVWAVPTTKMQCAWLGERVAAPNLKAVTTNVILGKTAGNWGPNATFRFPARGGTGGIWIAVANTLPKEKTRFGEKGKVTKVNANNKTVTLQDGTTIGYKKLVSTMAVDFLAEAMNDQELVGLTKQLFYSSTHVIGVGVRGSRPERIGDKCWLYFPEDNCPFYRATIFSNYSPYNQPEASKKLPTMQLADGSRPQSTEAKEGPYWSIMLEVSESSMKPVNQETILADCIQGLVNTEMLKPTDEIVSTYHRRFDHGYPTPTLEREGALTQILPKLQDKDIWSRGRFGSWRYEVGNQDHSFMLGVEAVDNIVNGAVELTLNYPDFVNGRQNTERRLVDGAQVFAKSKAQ
Experimental: The melting temperature[25] of UGM was determined by measuring the FAD fluorescence as a function of temperature (20–90 °C, 1 °C step) following the reported ThermoFAD procedure. The reaction mix consisted of 20 µL of 1 mg/mL UGM, 2% DMSO in 50 mM potassium phosphate buffer, pH 7.0. As a reference and positive control, the Tm was calculated in the presence DMSO and UDP (10 mM). Different concentrations of inhibitors were added in the range of 0–1 mM at a final DMSO concentration of 2% in the above-mentioned buffer. All experiments were done in triplicate.

A. fumigatus [5] = assay: Toxicity study, growth in PDA medium at 37 °C; assay type: cell-based, Aspergillus fumigatus
A. fumigatus [6] = assay: Congo red susceptibility assay; assay type: cell-based, Aspergillus fumigatus; details: 100 µM compound with congo red (0.5 and 1 mg/mL), 48 h, 37 °C
A. fumigatus [7] = assay: Thermotolerance study, growth in PDA at 50 °C; assay type: cell-based, Aspergillus fumigatus; details: 1000 µM compound, 48 h at 50 °C, vs reference
S. aureus strains = details: cited from earlier work
[8] = test system: UDP-glucuronosyltransferases; details: cited from earlier work

T1 sequence (Q4W1X2 whole entry): as above

**Q.** With `COc1ccc([C@@H]2CC(=O)c3c(O)cc(O)cc3O2)cc1O` [(2S)-hesperetin] as the compound, how does the remaining activity at 20 µM (A. fumigatus UGM [1]) read?
**A.** 17%

**Q.** And the “Inhibition of product formation, concentration dependence” value (A. fumigatus UGM [2]; UPLC at 20 and 200 µM compound, 2% DMSO)?
**A.** concentration dependent potency

**Q.** What about the Concentration effect (A. fumigatus UGM [2]; inhibition at 200 µM vs 20 µM compound, UPLC) of the same compound?
**A.** +

**Q.** What about the inhibition at 200 µM (A. fumigatus UGM [2]; read-out: Inhibition > 50 %) of the same compound?
**A.** > 50%

**Q.** And the “Type of Inhibition” value (A. fumigatus UGM [3])?
**A.** Competitive (NADPH)

**Q.** And the “Type of Inhibition” value (A. fumigatus UGM [3]; listed as (2S)-Hesperetin)?
**A.** competitive against NADPH

**Q.** And the “Inhibition of NADPH oxidation” value (A. fumigatus UGM [3]; absence of UDP-Galf)?
**A.** inhibited NADPH oxidation

**Q.** And the Kd (A. fumigatus UGM [4])?
**A.** 31 ± 6 µM

**Q.** And the “T•∆S” value (A. fumigatus UGM [4]; ITC, 25 °C)?
**A.** 2.1 ± 0.2 kcal/mol

**Q.** What about the “∆G” value (A. fumigatus UGM [4]; ITC, 25 °C) of the same compound?
**A.** -6.1 ± 0.4 kcal/mol

**Q.** What about the “∆H” value (A. fumigatus UGM [4]; ITC, 25 °C) of the same compound?
**A.** -4.1 ± 0.4 kcal/mol

**Q.** And the “Increase of Tm of UGM” value (UGM)?
**A.** ~ 2.7 °C

**Q.** And the A. fumigatus toxicity (A. fumigatus [5]; 1000 µM)?
**A.** no A. fumigatus toxicity

**Q.** And the “A. fumigatus toxicity under optimal growth conditions” value (A. fumigatus [5]; 600 and 1000 µM, 24-48 h)?
**A.** not toxic

**Q.** And the “Growth decrease with congo red” value (A. fumigatus [6])?
**A.** ~ 50%

**Q.** What about the “Delay in colony development” value (A. fumigatus [7]) of the same compound?
**A.** ~ 50%

**Q.** And the Biofilm formation inhibition (S. aureus strains)?
**A.** > 70%

**Q.** And the “Effect on UDP-glucuronosyltransferases” value [8]?
**A.** inhibitory effect

From article PMC5589893, “Identification of Aspergillus fumigatus UDP-Galactopyranose Mutase Inhibitors” (Scientific Reports, 2017)
